Source: patent US20250019769A1, “REPURPOSING DRUGS FOR NON-SMALL CELL LUNG CANCER” (WEST VIRGINIA UNIVERSITY BOARD OF GOVERNORS ON BEHALF OF …, priority 2021, published 2025)
Where two headings read alike, the source gives them in different places.

Legend:
CCLE NSCLC cell lines = assay: PRISM drug screen, growth inhibitory activity in CCLE NSCLC cell lines; type: cell-based; details: Homo sapiens, read-out: average IC50 or EC50 value
From the text: The growth inhibitory activity of 4,518 drugs was quantified in 578 human cancer cell lines using the PRISM molecular barcoding and multiplexed screening method. The PRISM dataset is available at the Cancer Dependency Map portal (https://depmap.org/portal/download/, accessed on 1 Apr. 2021). Drug responses of 9 commonly used chemotherapeutic regimens in treating NSCLC were included: carboplatin, cisplatin, paclitaxel, docetaxel, gemcitabine, vinorelbine, etoposide, gefitinib, and erlotinib. For each drug, cell lines with IC50 or EC50 value higher than the maximum dose were defined as resistant; cell lines with IC50 or EC50 value lower than the minimum dose were defined as sensitive. The remaining cell lines were divided into groups of resistant, sensitive, or partial response by using the mean±0.5 standard deviation (SD) of the drug activity metrics, including IC50, ln(IC50), EC50, or ln(EC50) values. Cell lines with a drug activity value less than the mean−0.5 SD were defined as sensitive to the drug, and those with a drug activity value between the mean+0.5 SD and the mean−0.5 SD were defined as having a partial response to the drug. Cell lines with a drug activity value greater than the mean+0.5 SD were defined as resistant to the drug. This categorization corresponds to the RECIST 1.1 system (i.e., complete response, partial response, and stable disease/disease progression) in evaluating chemotherapeutic response in solid tumors.
The growth inhibitory activity of 4,518 drugs was quantified in 578 human cancer cell lines using the PRISM molecular barcoding and multiplexed screening method. The PRISM dataset is available at the Cancer Dependency Map portal (https://depmap.org/portal/download/, accessed on 1 Apr. 2021). Drug responses of 9 commonly used chemotherapeutic regimens in treating NSCLC were included in this study: carboplatin, cisplatin, paclitaxel, docetaxel, gemcitabine, vinorelbine, etoposide, gefitinib, and erlotinib. For each drug, cell lines with IC50 or EC50 value higher than the maximum dose were defined as resistant; cell lines with IC50 or EC50 value lower than the minimum dose were defined as sensitive. The remaining cell lines were divided into groups of resistant, sensitive, or partial response by using the mean±0.5 standard deviation (SD) of the drug activity metrics, including IC50, ln(IC50), EC50, or ln(EC50) values. Cell lines with a drug activity value less than the mean−0.5 SD were defined as sensitive to the drug, and those with a drug activity value between the mean+0.5 SD and the mean−0.5 SD were defined as having a partial response to the drug. Cell lines a drug activity value greater than the mean+0.5 SD were defined as resistant to the drug. This categorization corresponds to the RECIST 1.1 system (i.e., complete response, partial response, and stable disease/disease progression) in evaluating chemotherapeutic response in solid tumors.

NSCLC [1] = details: combination with gefitinib in NSCLC; cited from earlier work
[2] = tested on: human NSCLC epithelial cell lines; assay: PRISM/GDSC drug response in human NSCLC epithelial cell lines (n=135); type: cell-based; details: average in human NSCLC epithelial cell lines (FIG. 18C)
From the text: (§1) The PRISM dataset. was obtained from the DepMap portal (https://depmap.org/portal/download/, PRISM repurposing 19Q4, accessed on 1 Apr. 2021). Carboplatin, cisplatin, docetaxel, erlotinib, etoposide, gefitinib, gemcitabine, paclitaxel (Taxol), pemetrexed, and vinorelbine were commonly used chemotherapeutic drugs in NSCLC treatment, the analysis focused on these ten regiments. Drug activity measurements, including IC50, ln(IC50), EC50, and ln(EC50), were used in the analysis. The available CCLE NSCLC cell lines were divided into three groups by the drug activity measurements: sensitive, resistant, and intermediate.
(§2) Drug activity measurements were generated in the GDSC Project. (https://www.cancerrxgene.org/downloads/bulk_download, accessed on 15 Apr. 2021). IC50 and ln(IC50) were the main metrics used in this analysis. The available CCLE NSCLC cell lines were divided into three groups by the drug activity measurements in the GDSC1/2 datasets, i.e., sensitive, resistant, and intermediate.

[3] = tested on: gene expression of CD27, PD1, CTLA4, or PDL1; assay: Pearson correlation of drug-response measurements with gene expression of ICIs in human NSCLC epithelial cell lines; details: for correlation of EC50 with CD27 mRNA expression: p<0.05, Pearson's correlation test, NSCLC cell lines (n=79, FIG. 18B)
From the text: as §1, §2
RStudio (version 1.4.1106), an integrated development environment for R, was used as the main tool for performing the statistical analyses. A two-tailed, unpaired Student's t-test was used to evaluate the significance of differential expression between two groups. Survival analysis and curves were generated using the Kaplan-Meier method, and log-rank tests were used to assess the difference in survival probability between different groups. The univariate and multivariate Cox regression analyses were used in the prognostic evaluation and curve generation with R packages “survival”, “survminer”, and “ggplot2”. The strength of the linear relationship between two sample groups was measured with Pearson's correlation test. Results in statistical tests were considered significant with a p-value<0.05.
Several targeted therapeutic candidates were identified with CMap.

[4] = tested on: advanced solid tumors including NSCLC; details: single-agent, cited from earlier work
resected NSCLC tumors = details: neoadjuvant; 9 of 20 resected NSCLC tumors, stages I, II, and IIIA; cited from earlier work
[5] = tested on: mRNA expression of CD27, PD1, or PDL1; assay: Pearson correlation of drug concentration (PRISM, GDSC1, GDSC2) with mRNA expression of immune checkpoint genes in CCLE NSCLC cell lines; parameters: species or system human; details: p<0.05, Pearson's correlation, datasets PRISM, CCLE NSCLC cell lines (n=117)
From the text: The growth inhibitory activity of 4,518 drugs was quantified in 578 human cancer cell lines using the PRISM molecular barcoding and multiplexed screening method. The PRISM dataset is available at the Cancer Dependency Map portal (https://depmap.org/portal/download/, accessed on 1 Apr. 2021). Drug responses of 9 commonly used chemotherapeutic regimens in treating NSCLC were included: carboplatin, cisplatin, paclitaxel, docetaxel, gemcitabine, vinorelbine, etoposide, gefitinib, and erlotinib. For each drug, cell lines with IC50 or EC50 value higher than the maximum dose were defined as resistant; cell lines with IC50 or EC50 value lower than the minimum dose were defined as sensitive. The remaining cell lines were divided into groups of resistant, sensitive, or partial response by using the mean±0.5 standard deviation (SD) of the drug activity metrics, including IC50, ln(IC50), EC50, or ln(EC50) values. Cell lines with a drug activity value less than the mean−0.5 SD were defined as sensitive to the drug, and those with a drug activity value between the mean+0.5 SD and the mean−0.5 SD were defined as having a partial response to the drug. Cell lines with a drug activity value greater than the mean+0.5 SD were defined as resistant to the drug. This categorization corresponds to the RECIST 1.1 system (i.e., complete response, partial response, and stable disease/disease progression) in evaluating chemotherapeutic response in solid tumors. Drug screening data was downloaded from Genomics of Drug Sensitivity in Cancer (GDSC) Project (https://www.cancerrxgene.org/downloads/bulk_download, accessed on 15 Apr. 2021). The GDSC Project screened more than 1,000 genetically characterized human cancer cell lines with a wide range of anti-cancer therapeutic agents. Among the commonly used chemotherapeutic regimens in treating NSCLC drugs, […] were found in GDSC1, including cisplatin, docetaxel, erlotinib, etoposide, gefitinib, gemcitabine, pemetrexed, and vinorelbine; 7 were found in GDSC2, including cisplatin, docetaxel, erlotinib, gefitinib, gemcitabine, paclitaxel, and vinorelbine. For each drug, cell lines were defined as resistant, sensitive, or partial response by using the mean±0.5 SD of the IC50 values as described above. Various statistical methods can be utilized. Statistical analysis was performed using Rstudio version 1.4.1106. […] Survival analysis was performed using Kaplan-Meier analysis with the survival package in R. Log-rank tests were used to assess the difference in survival probability from different groups in Kaplan-Meier analyses. The genes in the networks were evaluated with Cox proportional hazard model and Kaplan-Meier analysis. Pearson's correlation test was used to find the relationship be-tween two variables. The multivariate Cox regression analysis was used to build the model of risk-scores. […] Pearson's correlation test was used to find the relationship between two variables. One-tailed two proportion z-test was used to compare if two proportions are the same.

NSCLC cells = details: cited from earlier work
[6] = tested on: xenograft mouse model of lung cancer; details: cited from earlier work
NSCLC [7] = details: stage IIIB, after chemoradiation, cited from earlier work
[8] = tested on: FRα (FOSL1)-positive advanced solid tumors; details: patient derived xenograft models and phase I study; cited from earlier work
[9] = CCLE NSCLC cell lines, 7-gene network study (FIG. 13C)
[10] = average over CCLE NSCLC cell lines (n=117), 8 doses 0.0006 μM to 10 μM

Cc1nc(Nc2ncc(C(=O)Nc3c(C)cccc3Cl)s2)cc(N2CCN(CCO)CC2)n1 [dasatinib]
IC50 (CCLE NSCLC cell lines; [9]): ≤ 1000 nM

CC(C)c1ccccc1Cc1cc(C(=O)Nc2ccc(S(=O)(=O)c3ccccc3C(C)(C)C)cc2)c(O)c(O)c1O [TW-37]
effect on pro-apoptosis and anti-migration ability of gefitinib (NSCLC [1]): enhanced

CO[C@@H](C(=O)N1Cc2n[nH]c(NC(=O)c3ccc(N4CCN(C)CC4)cc3)c2C1)c1ccccc1 [danusertib]
EC50 [2]: < 1000 nM | IC50 [2]: < 1000 nM | correlation of EC50 with CD27 mRNA expression [3]: significant negative correlation | correlation of EC50 with CD27 mRNA expression ([3]; listed as Danusertib): inhibitory association | anti-tumor activity ([4]; common solid tumor types): marginal anti-tumor activity | tolerability ([4]; phase I and phase II clinical studies): well tolerated

nivolumab: PD-1 inhibitor
pathological response (resected NSCLC tumors): 45%

COc1cccc2c1C(=O)c1c(O)c3c(c(O)c1C2=O)C[C@@](O)(C(=O)CO)C[C@@H]3O[C@H]1C[C@H](N)[C@H](O)[C@H](C)O1 [doxorubicin]
IC50 (CCLE NSCLC cell lines; [10]): < 1000 nM

CC(/C=C/C(=O)NO)=C\[C@@H](C)C(=O)c1ccc(N(C)C)cc1 [trichostatin A]
correlation of drug concentration [IC50, EC50, ln(IC50), or ln(EC50)] with mRNA expression of CD27, PD1, or PDL1 [5]: significant negative correlation

Cc1cnc(Nc2ccc(OCCN3CCCC3)cc2)nc1Nc1cccc(S(=O)(=O)NC(C)(C)C)c1 [TG-101348]
association with PDL1 gene expression ([3]; human NSCLC epithelial cell lines): inhibitory association | PDL1 protein expression (NSCLC cells): reduced PDL1 protein expression | erlotinib-resistance (NSCLC cells): reversed erlotinib-resistance | radiosensitization and EMT blockade [6]: mediated radiosensitization and EMT blockade

durvalumab: anti-PD-L1
median OS (NSCLC [7]; durvalumab arm): not reached | overall survival HR vs placebo arm (NSCLC [7]; phase III randomized trial): 0.69 (95% CI 0.55-0.86)

CC1CC(OC(=O)c2ccccc2O)CC(C)(C)C1 (stereo not shown) [homosalate]
IC50 (CCLE NSCLC cell lines; [9]): ≤ 1000 nM

C[C@]12O[C@H](C[C@]1(O)CO)n1c3ccccc3c3c4c(c5c6ccccc6n2c5c31)CNC4=O [lestaurtinib]
IC50 (CCLE NSCLC cell lines; [9]): ≤ 1000 nM | EC50 [2]: < 1000 nM | IC50 [2]: < 1000 nM

MORAb-202
antitumor response [8]: robust antitumor response

O=C1c2c(O)ccc(O)c2C(=O)c2c(NCCNCCO)ccc(NCCNCCO)c21 [mitoxantrone]
IC50 (CCLE NSCLC cell lines; [10]): < 1000 nM | correlation of drug concentration [IC50, EC50, ln(IC50), or ln(EC50)] with mRNA expression of CD27, PD1, or PDL1 [5]: significant negative correlation

OC1(c2ccc(Cl)c(C(F)(F)F)c2)CCN(CCCC(c2ccc(F)cc2)c2ccc(F)cc2)CC1 [penfluridol]
IC50 (CCLE NSCLC cell lines; [9]): ≤ 1000 nM

CCc1c2c(nc3ccc(OC(=O)N4CCC(N5CCCCC5)CC4)cc13)-c1cc3c(c(=O)n1C2)COC(=O)[C@]3(O)CC [irinotecan]
correlation of drug concentration [IC50, EC50, ln(IC50), or ln(EC50)] with mRNA expression of CD27, PD1, or PDL1 [5]: significant negative correlation

CCN(CC)C(=S)SSC(=S)N(CC)CC [disulfiram]
IC50 (CCLE NSCLC cell lines; [10]): < 1000 nM

ivermectin
correlation of drug concentration [IC50, EC50, ln(IC50), or ln(EC50)] with mRNA expression of CD27, PD1, or PDL1 [5]: significant negative correlation

COc1ccc(C[C@H](N)C(=O)N[C@H]2[C@@H](O)[C@H](n3cnc4c(N(C)C)ncnc43)O[C@@H]2CO)cc1 [puromycin]
correlation of drug concentration [IC50, EC50, ln(IC50), or ln(EC50)] with mRNA expression of CD27, PD1, or PDL1 [5]: significant negative correlation

C[C@H]1[C@H](NC(=O)/C(=N\OC(C)(C)C(=O)O)c2csc(N)n2)C(=O)N1S(=O)(=O)O [aztreonam]
correlation of drug concentration [IC50, EC50, ln(IC50), or ln(EC50)] with mRNA expression of CD27, PD1, or PDL1 [5]: significant negative correlation

COc1cc(/C=C/C(=O)N2CCC=CC2=O)cc(OC)c1OC [piperlongumine]
correlation of drug concentration [IC50, EC50, ln(IC50), or ln(EC50)] with mRNA expression of CD27, PD1, or PDL1 [5]: significant negative correlation
